Experimental data: PMC10778758, “Dithioethanol (DTE)-Conjugated Deoxyribose Cyclic Dinucleotide Prodrugs (DTE-dCDNs) as STING Agonist” (International Journal of Molecular Sciences, 2023)

How the values were obtained:
[1] = In vitro serum stability assay in 20% fetal bovine serum; type: in vitro ADME; details: 100 μM, 20% FBS, 37 °C
Experimental: In vitro serum stability assay. Each compound (100 μM) was incubated at 37 °C in the reaction buffer including 20% fetal bovine serum (FBS, GIBCO, Thermo Fisher Scientific, Waltham, MA, USA), 10 mM PBS (pH 7.4), and 1 mM MgCl2. At various times, aliquots of the reaction mixture were collected and stopped by adding 50 μL MeCN and diluted with 50 μL water. The reaction mixture was then centrifuged at 10,000 rpm for 5 min, leaving 100 μL supernatant for the HPLC assay. An amount of 10 μL of each aliquot was injected directly into HPLC (Agilent 1260 Infinity HPLC equipped with a UV detector; column Agilent ZORABX SB-C18 5 μm [4.6 × 150 mm; detection at 254 nm; column temperature 25 °C] for analysis. Amounts of 10 mM TEAA buffer (solvent A) and MeCN (solvent B) were used as the mobile phase with a flow rate of 1 mL/min. The gradient was set as the following: 0–2 min: 98% A/2% B; 2–6 min: 98% A/2% B to 100% B; 6–10 min: 100% B; 10–13 min: 100% B to 98% A/2% B; 13–15 min: 98% A/2% B. The % remaining of the test compounds after incubation in the serum was then calculated.
Figure 4 Parent dCDN of DTE-dCDN prodrug 9 retained a high serum stability. The serum stability analysis of (a) prodrug 9, (b) 3′,3′-c-di-dAMP, (c) 2′,3′-cGAMP and (d) ADU-S100 were determined in 20% FBS. Each compound (100 μM) was incubated in 20% FBS at 37 °C. At various times (0, 2, 4, 8, 12, 24, 48, 72 h), aliquots of the reaction mixture were analyzed with HPLC at 254 nm. The % remaining of test compounds after incubation in serum was calculated.

[2] = tested on: THP-1 cells; experiment: Uptake of DTE-dCDN prodrug, intracellular levels by LC/MS/MS; details: THP-1 cells treated with 100 μM 3′,3′-c-di-dAMP, within 6 h
Experimental: Uptake of DTE-dCDN Prodrug. THP-1 cells were seeded at a concentration of 5 × 10^6 cells/mL into a 12-well plate. After 16 h of incubation at 37 °C in a 5% CO2 atmosphere, the compounds were added to cell cultures and the cells were collected at time points of 1 h, 2 h, 4 h, 6 h, 8 h, 12 h, and 24 h by centrifugation for 1 min at 1000× g. The media was removed completely, and the cells were washed twice with 800 μL of ice-cold PBS before being lysed with 400 μL ice-cold 70% methanol. Lysates were incubated overnight at −20 °C and then centrifuged for 20 min at 13,000× g to remove cellular debris. The supernatant was analyzed via LC/MS/MS (Agilent 1290 Infinity II/6470A)
(a) The intracellular concentration of the prodrug 9 in THP-1 cells. (b) The intracellular concentration of the parent dCDN (3′,3′-c-di-dAMP) in THP-1 cells. THP-1 cells were treated with 10 μM prodrug 9 or 100 μM parent dCDN (3′,3′-c-di-dAMP) for the indicated period of time (1, 2, 4, 6, 8, 12, 24 h), and the intracellular concentration of the metabolites in cellular extracts was determined with liquid chromatograph MS/MS analysis.

[3] = tested on: THP1-Lucia cells; experiment: THP1-Lucia cell-based luciferase reporter assay; details: 24 h
Experimental: THP1-Lucia cell-based reporter assay. THP1-Lucia cells were seeded into a 24-well plate at a density of 5 × 10^4 cells/well. […] Finally, the medium was collected to determine the luciferase activity using QUANTI-Luc (InvivoGen, San Diego, CA, USA) according to the manufacturer′s instruction to calculate the EC50 values of the tested compounds. The results are expressed as the mean ± SD from three independent experiments. Emax values were normalized to the response induced by 2′,3′-cGAMP in each assay and expressed as a mean percentage ± SD from three independent experiments. The THP1-Lucia cell line was obtained from Prof. Junmin Quan from Peking University (Beijing, China).
Figure 5 The luciferase-based assay in the THP1-Lucia reporter cell line. (a) EC50 values represent the mean (±SD) of three independent experiments. (b) Emax values represent the mean (±SD) of three independent experiments.

[4] = tested on: CT-26 cells; experiment: RT-qPCR of IFN-β mRNA in CT-26 cells; type: cell-based; details: CT-26, prodrug 9 and ADU-S100 10 μM, CDNs 100 μM, 4 h
Experimental: Real-time quantitative PCR (RT-qPCR). The mRNA expression levels of diverse cytokines were measured using quantitative RT-PCR (RT-qPCR) assays. THP-1 cells or CT26 cells were incubated with the compounds for 4 h, subsequently harvested for RNA isolation according to the manufacturer’s instructions of RNApure Tissue&Cell Kit (DNase I) (CWBIO, Cambridge, MA, USA catalogue no. CW0560S). Next, 1 μg RNA was reversely transcribed to cDNA by TransScript All-in-One First-Strand cDNA Synthesis SuperMix for qPCR (One-Step gDNA Removal) (TransGen, Beijing, China). To examine the mRNA levels, real-time PCR was performed in a CFX96 Real-Time PCR system (Bio-RAD, Hercules, CA, USA) using PerfectStart Green qPCR Super Mix (TransGen) and primers (Sangon Biotech, Shanghai, China). The expression level was calculated according to the formula (2^−∆∆Ct) using the GAPDH or β-actin as the internal reference gene and the relative gene expression fold was normalized to the DMSO-treated cells. The THP-1 and CT26 cell lines were obtained from American Type Culture Collection (ATCC, Manassas, VA, USA). […]
expression levels of IFN-β were assessed by real-time quantitative PCR (qPCR) under the treatment of prodrug 9 (10 μM), 3′,3′-c-di-dAMP (100 μM), 2′,3′-cGAMP (100 μM) and ADU-S100 (10 μM) for 4 h.
Figure S3. […]
levels of IFN-β were assessed by an enzyme-linked immunosorbent assay (ELISA). […]

[5] = tested on: THP1-Lucia cells; experiment: Luciferase activity in THP1-Lucia cells pretreated with STING or TBK1 inhibitor; type: cell-based; details: inhibitor 10 μM pretreated 1 h, prodrug 9 10 μM, 24 h
Experimental: The endogenous 2′,3′-cGAMP was set as the positive control group. H-151 [26] and BX795 [27] were selected to use as the STING inhibitor and TBK1 inhibitor, respectively.
Figure 6 Prodrug 9 activated the IFN-β promoter responsive luciferase expression through STING signaling pathway. Prodrug 9 (10 μM) and 2′,3′-cGAMP (10 μM) were added to THP1-Lucia cells alone or pretreated with vehicle or H-151 (10 μM), BX795 (10 μM) for 1 h, respectively. The luciferase activity was measured with Quanti-Luc reagent via a 24 h incubation at 37 °C. Data are presented as mean ± SD, n = 3.

Compound	T1/2 (half-life period) [1] [h]	degraded at 72 h [1]	effect on induction of luciferase expression by prodrug 9 [5]	other results
Nc1nc2c(ncn2[C@@H]2O[C@@H]3COP(=O)(O)O[C@H]4[C@@H](O)[C@H](n5cnc6c(N)ncnc65)O[C@@H]4COP(=O)(O)O[C@@H]2[C@@H]3O)c(=O)[nH]1 [2′,3′-cGAMP]	31	80%		
Nc1ncnc2c1ncn2[C@H]1C[C@@H]2OP(=O)(O)OC[C@H]3O[C@@H](n4cnc5c(N)ncnc54)C[C@@H]3OP(=O)(O)OC[C@H]2O1 [3′,3′-c-di-dAMP]	> 72	did not show any degradation		intracellular levels of the parent dCDN 3′,3′-c-di-dAMP [2]: not detectable; EC50 [3]: 41.3 µM
Nc1ncnc2c1ncn2[C@@H]1O[C@@H]2COP(=O)([S-])O[C@@H]3[C@H](O)[C@@H](COP([O-])(=S)O[C@H]2[C@H]1O)O[C@H]3n1cnc2c(N)ncnc21.[Na+].[Na+] (stereo partly shown) [ADU-S100, reference compound]	67			induction of IFN-β transcription in CT-26 cells [4]: no significant induction
O=C(NCCCNc1nc(Nc2cccc(NC(=O)N3CCCC3)c2)ncc1I)c1cccs1 [BX795]			could block the induction of the luciferase expression	
CCc1ccc(NC(=O)Nc2c[nH]c3ccccc23)cc1 [H-151]			could block the induction of the luciferase expression	
